Laboratory results from article PMC10967572, “Induction of Oxidative Stress and Ferroptosis in Triple-Negative Breast Cancer Cells by Niclosamide via Blockade of the Function and Expression of SLC38A5 and SLC7A11” (Antioxidants, 2024).

Tests used:
MB231 xenograft tumors = test: qRT-PCR and Western blot of xenograft tumor tissue; assay type: in vivo, mouse; conditions: niclosamide 4 mg/kg daily i.p.
Procedure: Total RNA was extracted from cells using TRIzol Reagent (ThermoFisher Scientific, Waltham, MA, USA) and the RNA was reverse-transcribed using a high-capacity cDNA reverse transcription kit (ThermoFisher Scientific, Waltham, MA, USA) according to the manufacturer’s protocol. Quantitative RT-PCR was performed with Takara Taq Hot Start Version (TaKaRa Biotechnology, Shiga, Japan) or Power SYBR Green PCR master mix (Bio-Rad, Hercules, CA, USA). Primer sequences are shown in Supplemental Table S1. The relative mRNA expression was determined by the 2^−∆∆Ct method. Additionally, 18S was used as a housekeeping gene for normalization.
Cells and tumor tissues were lysed in Pierce™ RIPA buffer (ThermoFisher Scientific, Waltham, MA, USA) supplemented with Halt™ Protease and Phosphatase Inhibitor Cocktail (ThermoFisher Scientific, Waltham, MA, USA). Homogenates were centrifuged, and supernatants were used for protein measurement via Pierce™ BCA Protein Assay Kit (ThermoFisher Scientific, Waltham, MA, USA). […] Western blot samples were prepared in Laemmli sample buffer (Bio-Rad Laboratories, Hercules, CA, USA). They were loaded onto a SDS–PAGE gel and transferred onto a PVDF membrane (Bio-Rad Laboratories, Hercules, CA, USA). The membrane was blocked and antibodies diluted in 5% nonfat dry milk (Bio-Rad Laboratories, Hercules, CA, USA) or in 5% bovine serum albumin (Irvine Scientific, Santa Ana, CA, USA) were used. Protein bands were visualized using Pierce™ ECL Western Blotting Substrate (ThermoFisher Scientific, Waltham, MA, USA) and developed on the autoradiography film (Santa Cruz, Dallas, TX, USA). Primary antibodies were purchased either from Cell Signaling (Danvers, MA, USA) [anti-GPX4 (#52455), anti-FTH (#4393), anti-HSP60 (#12165), anti-phospho-p70S6K (#9205), anti-p70S6K (#2708)] or from Abcam (Waltham, MA, USA) [Nrf2 (#ab62352)]. Secondary antibody Horseradish peroxidase-conjugated goat anti-rabbit IgG (#1706515) was purchased from Bio-Rad Laboratories (Hercules, CA, USA). For quantification of protein levels by the densitometric analysis, the experiment was carried out in triplicate and the data were collected from the resultant three Western blots.
Female athymic nude mice (4-week-old) were purchased from Jackson Laboratories and housed under standard conditions. MDA-MB231 cells were injected into lower mammary fat pad (5 × 10^6 cells). All cells were suspended in serum-free media and Matrigel (1:1 ratio), with 100 µL of suspension being injected into each mouse. Mice were treated by daily intraperitoneal injection of niclosamide (4 mg/kg/day) and vehicle (dimethylsulfoxide) control. The treatment began when the tumor size was 100–150 mm^3. Tumor size was measured biweekly with a caliper, with tumor volume calculated using the formula (width^2 × length)/2. Tumors were allowed to grow for 7 weeks; mice were then euthanized via isoflurane […] and tumors harvested. The animal study protocol was approved by the Texas Tech University Health Sciences Center Institutional Animal Care and Use Committee (IACUC protocol number 18005) and the experiments were conducted in the same institution. RNA and protein were prepared from the tumor tissue for qRT-PCR and Western blotting.

MB231 and TXBR100 cells [1] = test: Matrigel cell invasion assay; assay type: cell-based; conditions: Homo sapiens, niclosamide 2.5 μM, 24 h, read-out: inhibition of cell invasion and migration
Procedure: The effect of niclosamide on cell invasion was monitored using Corning® BioCoat™ Matrigel® Invasion assay kit according to the manufacturer’s instructions. Briefly, cells were serum-starved and their invasion to the other side of the membrane was analyzed in the presence or absence of niclosamide for 24 h. At the end of this treatment, non-invaded cells on the top side of the membrane were removed by scrubbing. Cells which invaded the other side of the membrane were fixed with 100% methanol, stained with crystal violet and counted under an inverted microscope; images were also captured.

MB231 and TXBR100 cells [2] = test: Cellular iron assay (Ferro-orange); assay type: cell-based, human; conditions: niclosamide 5 μM, 30 min
Procedure: (§1) Lipid radical (ferroptosis) assay and iron assay were performed as follows. Cells were cultured on a 25 mm glass coverslip until they reached 60–70% confluency (~48 h). At the time of the experiment, cells were washed with NaCl buffer, pH 7.5 and then incubated with 1 µM of LipiRadical Green (a lipid radical detection reagent, FDV-0042, Funakoshi, Tokyo, Japan) or Ferro-orange (an iron detection probe, F374, Dojindo, Rockville, MD, USA) in NaCl buffer, pH 7.5 for 20 min and then washed with NaCl buffer, pH 7.5. To analyze the effects of modifiers of iron levels and lipid peroxidation, the cells were co-treated with the modifiers and the respective fluorescent probe for 20 min and then washed. The glass coverslip containing the cells was then probed under an inverted microscope. The fluorescence imaging was captured using a Nikon T1-E microscope with A1 confocal super-resolution module (Nikon, Dallas, TX, USA), with a 60× objective, at 488 nm. The images represent a maximum projection intensity derived from a Z-stack. The fluorescence quantification was performed by measuring the corrected total cell fluorescence (CTCF) using Image J (version: 2.14.0/1.54f) and the following formula; CTCF = (integrated density) − (area of cell of interest) × (mean fluorescence of background).

[3] = test system: MB231 cells and TXBR100 cells; test: Lipid radical (ferroptosis) assay with LipiRadical Green; assay type: cell-based, human; conditions: niclosamide 5 μM; MB231 30 min, TXBR100 2 h
Procedure: as §1

SMILES: O=C(Nc1ccc([N+](=O)[O-])cc1Cl)c1cc(Cl)ccc1O [niclosamide]
- Nrf2 protein levels in tumors (MB231 xenograft tumors; Western blot): markedly decreased
- ferritin heavy chain protein levels in tumors (MB231 xenograft tumors; Western blot): decreased
- Nrf2 mRNA level in tumors (MB231 xenograft tumors; qRT-PCR): markedly decreased
- SLC7A11 mRNA level in tumors (MB231 xenograft tumors; qRT-PCR): markedly decreased
- SLC38A5 mRNA level in tumors (MB231 xenograft tumors; qRT-PCR): markedly decreased
- inhibition at […] (MB231 and TXBR100 cells [1]): > 75%
- cellular iron levels (MB231 and TXBR100 cells [2]): increased
- ferroptosis (lipid radical fluorescence) [3]: induced ferroptosis
